Tests used:
Assay type in all cases: cell-based
[1] = test system: SKW-3 cells expressing MBV28 (TRAV1-2/TRBV28) TCR; assay: MAIT cell activation assay, SKW-3 MBV28 TCR co-cultured with C1R.MR1; conditions: SKW-3 MBV28, ligand alone
Experimental: (§1) Next, we explored whether RF catabolites could activate SKW-3 cells expressing two different MAIT TCRs. Distinct responses of T cells expressing TCRs with varying TRBV chain usage reinforces the role of Vβ in modulating MAIT responses to various ligands ([Chancellor et al., 2023]; [Gherardin et al., 2016]; [Seneviratna et al., 2022]).The surface expression of CD69 was measured as a marker for activation of cells expressing the AF-7 (TRAV1-2/TRBV6-1) or MBV28 (TRAV1-2/TRBV28) TCRs after co-culture with C1R.MR1 cells and the ligands.
(§2) C1R.MR1 cells (1 x 10^5) were initially stained with CTV for 15 minutes and then incubated with RF catabolites for 20 h. […] Cells were subsequently stained with PE-Cy7-conjugated anti-CD69 (BD; 1:100) and PE-labelled anti-MR1 (26.5 clone; BD; 1:100), before analysis on LSRFortessa (BD Biosciences) flow cytometer. Activation of SKW-3-MAIT cells was reflected by the cell-surface CD69 expression.

[2] = test system: SKW-3 cells expressing AF-7 (TRAV1-2/TRBV6-1) TCR; assay: MAIT cell activation assay, SKW-3 AF-7 TCR co-cultured with C1R.MR1; conditions: SKW-3 AF-7, ligand alone
Experimental: as §1, §2

MAIT cells in human PBMC [3] = assay: Primary MAIT activation (CD69) in PBMCs; conditions: 16 h, ligand alone
MAIT cells in human PBMC [4] = assay: MAIT cell proliferation in CTV-labeled PBMCs; conditions: day 7, 5-OP-RU 10 μM, RF ligands 100 μM
C1R.MR1 cells [5] = assay: Endo H treatment and western blot of intracellular MR1; conditions: C1R.MR1, 16 h; RF and catabolites 100 μM, Ac-6-FP 10 μM
Experimental: The downregulation of MR1 on the cell surface by the RF catabolites could be due to the depletion of the intracellular ER-resident MR1 pool, or by retention of MR1 in the ER, as shown for the DB28 ligand ([Salio et al., 2020]). To investigate this, C1R.MR1 cells were treated for 16 h with 100 μM of RF or RF catabolites, conditions which induce MR1 downregulation (Fig. 3A). Cells were lysed, and treated with endoglycosidase (Endo) H, to distinguish molecules that remain within the ER from those that have trafficked to the cell surface ([McWilliam et al., 2016]), then MR1 levels were assessed by immunoblotting (Fig. 3A).
Figure 3. […] S, Endo H–susceptible MR1; R, Endo H–resistant MR1. The Endo H–susceptible MR1 and Endo H–resistant MR1 fractions were quantified in at least two independent experiments. (b) Intracellular total MR1 level was also measured in C1R.MR1 cells by flow cytometry after treating the cells with the indicated ligands (100 μM) for 16h followed by permeabilization and staining with anti-MR1-PE (8F2.F9). Shown are the overlay histograms (top) and a bar chart depicting the geometric mean fluorescence intensity (gMFI) fold change of intracellular MR1 level (bottom) from three independent experiments performed in duplicates, with standard error (SEM) represented by the error bars. […]

C1R.MR1 cells [6] = assay: Intracellular total folded MR1 by flow cytometry (8F2.F9); conditions: C1R.MR1, 100 μM, 16 h
C1R.MR1^R9H cells = assay: Cell surface MR1 R9H quantification, C1R.MR1^R9H
Text: We then tested the effect of the RF catabolites on the expression of two mutant versions of MR1 termed MR1^R9H ([Howson et al., 2020]) and MR1^K43A ([Reantragoon et al., 2013]). First, we tested the MR1^R9H mutant ([Howson et al., 2020]) which represents a rare, natural human polymorph. […] When C1R. […] Next, we tested sought to understand how the previously characterised Lys43A mutation affects ligand binding. […] While this is in line with the ability of these ligands to bind MR1, the reason for MR1^K43A cell surface accumulation is less clear. The most likely explanation is that these ligands bind ER-resident MR1^K43A, in line with our data using wild-type MR1; however, because the K43A mutation results in spontaneous MR1 surface egress, the presence of these stabilising ligands promotes enhanced trafficking and/or retention at the cell surface. We cannot rule out however that the ligands may also bind directly to surface MR1^K43A and slow down the recycling from cell surface.
The level of MR1 expressed on the cell surface was measured after the exposure to the investigated ligands as previously described ([Awad et al., 2020a]; [Wang et al., 2022a]). […] The PE fluorescence intensity reflects the surface MR1 level. The data was acquired with an LSRFortessa X-20 (BD Biosciences) and Diva software (BD Biosciences) and analyzed using FlowJo software (BD Biosciences).

Row | SMILES | CD69 surface expression (activation) [1] | CD69 surface expression (activation) [2] | CD69 expression on gated MAIT cells (MAIT cells in human PBMC [3]) | MAIT cell proliferation (MAIT cells in human PBMC [4]) | Endo H-resistant MR1 (C1R.MR1 cells [5]) | total level of folded MR1 (intracellular staining with 8F2.F9) (C1R.MR1 cells [6]) | MR1^R9H surface level (C1R.MR1^R9H cells)
1 | CC(=O)C=Nc1c(NC[C@H](O)[C@H](O)[C@H](O)CO)[nH]c(=O)[nH]c1=O [5-OP-RU, 5-(2-oxopropylideneamino)-6-D-ribitylaminouracil, reference compound] | induced strong activation | induced strong activation | induced robust CD69 upregulation | significantly proliferated | – | – | –
2 | Nc1nc2ncc(C=O)nc2c(=O)[nH]1 [6-FP, 6-formylpterin, reference compound] | moderately reduced basal CD69 levels | moderately reduced basal CD69 levels | – | – | – | – | –
3 | CC(=O)Nc1nc2ncc(C=O)nc2c(=O)[nH]1 [Ac-6-FP, acetyl-6-FP, reference compound] | – | – | – | – | increase in MR1 of a higher molecular weight | significantly increased | significantly increased

Reference: paper doi:10.1101/2025.07.20.665728 (bioRxiv, 2025)
